Paper PMC9276671, “A first-in-human Phase I dose-escalation trial of the novel therapeutic peptide, ALM201, demonstrates a favourable safety profile in unselected patients with ovarian cancer and other advanced solid tumours” (British Journal of Cancer, 2022)
No end group written: not given here.

Test: Plasma pharmacokinetics of ALM201 in Phase I patients (validated LC-MS/MS, Phoenix WinNonlin)
Settings: human, plasma, sc; for Tmax: median; for Tmax / AUC(0-t) / Cmax: plasma LC-MS/MS; for AUC(0-t): AUC0-t; for AUC(0-t) / Cmax: Gmean (CV)
[1] = 300 mg, 300 mg SC, day 1 cycle 1, n = 3
[2] = 300 mg, 300 mg SC, day 3 cycle 1, n = 3
[3] = 300 mg, 300 mg SC, day 18 cycle 2, n = 3
[4] = 300 mg, 300 mg SC, day 18 cycle 4, n = 1
[5] = 300 mg, 300 mg SC, day 18 cycle 6, n = 1

## IRQQPRDPPTETLELEVSPDPAS [ALM201]
200 mg, Plasma concentration, geometric mean (CV%), 200 mg SC, day 1 cycle 1, 6 h after dosing, n = 4, LC-MS/MS
  level at 6 h: 518 ng/mL
200 mg, Plasma concentration, geometric mean (CV%), 200 mg SC, day 3 cycle 1, 0.5 h after dosing, n = 4, LC-MS/MS
  level at 0.5 h: 1090 ng/mL
200 mg, Plasma concentration, geometric mean (CV%), 200 mg SC, day 3 cycle 1, 1 h after dosing, n = 3, LC-MS/MS
  level at 1 h: 1410 ng/mL
200 mg, Plasma concentration, geometric mean (CV%), 200 mg SC, day 3 cycle 1, 1.5 h after dosing, n = 4, LC-MS/MS
  level at 1.5 h: 1320 ng/mL
200 mg, Plasma concentration, geometric mean (CV%), 200 mg SC, day 3 cycle 1, 2 h after dosing, n = 4, LC-MS/MS
  level at 2 h: 1540 ng/mL
200 mg, Plasma concentration, geometric mean (CV%), 200 mg SC, day 3 cycle 1, 3.5 h after dosing, n = 4, LC-MS/MS
  level at 3.5 h: 1250 ng/mL
200 mg, Plasma concentration, geometric mean (CV%), 200 mg SC, day 3 cycle 1, 5 h after dosing, n = 4, LC-MS/MS
  level at 5 h: 958 ng/mL
200 mg, Plasma concentration, geometric mean (CV%), 200 mg SC, day 18 cycle 1, 0.5 h after dosing, n = 3, LC-MS/MS
  level at 0.5 h: 811 ng/mL
200 mg, Plasma concentration, geometric mean (CV%), 200 mg SC, day 18 cycle 1, 1 h after dosing, n = 3, LC-MS/MS
  level at 1 h: 1260 ng/mL
200 mg, Plasma concentration, geometric mean (CV%), 200 mg SC, day 18 cycle 1, 1.5 h after dosing, n = 2 values (CV NC), LC-MS/MS
  level at 1.5 h: 1670 ng/mL
200 mg, Plasma concentration, geometric mean (CV%), 200 mg SC, day 18 cycle 1, 2 h after dosing, n = 2 values (CV NC), LC-MS/MS
  level at 2 h: 1580 ng/mL
200 mg, Plasma concentration, geometric mean (CV%), 200 mg SC, day 18 cycle 1, 3.5 h after dosing, n = 3, LC-MS/MS
  level at 3.5 h: 1130 ng/mL
200 mg, Plasma concentration, geometric mean (CV%), 200 mg SC, day 18 cycle 1, 5 h after dosing, n = 3, LC-MS/MS
  level at 5 h: 890 ng/mL
200 mg, Plasma concentration, geometric mean (CV%), 200 mg SC, day 18 cycle 2, 0.5 h after dosing, n = 2, LC-MS/MS
  level at 0.5 h: 1210 ng/mL
200 mg, Plasma concentration, geometric mean (CV%), 200 mg SC, day 18 cycle 2, 1 h after dosing, n = 2, LC-MS/MS
  level at 1 h: 1470 ng/mL
200 mg, Plasma concentration, geometric mean (CV%), 200 mg SC, day 18 cycle 2, 1.5 h after dosing, n = 2, LC-MS/MS
  level at 1.5 h: 1890 ng/mL
200 mg, Plasma concentration, geometric mean (CV%), 200 mg SC, day 18 cycle 2, 2 h after dosing, n = 2, LC-MS/MS
  level at 2 h: 1360 ng/mL
200 mg, Plasma concentration, geometric mean (CV%), 200 mg SC, day 18 cycle 2, 3.5 h after dosing, n = 2, LC-MS/MS
  level at 3.5 h: 911 ng/mL
200 mg, Plasma concentration, geometric mean (CV%), 200 mg SC, day 18 cycle 2, 5 h after dosing, n = 2, LC-MS/MS
  level at 5 h: 690 ng/mL
200 mg, Plasma concentration, geometric mean (CV%), 200 mg SC, day 18 cycle 4, 0.5 h after dosing, n = 2, LC-MS/MS
  level at 0.5 h: 1080 ng/mL
200 mg, Plasma concentration, geometric mean (CV%), 200 mg SC, day 18 cycle 4, 1 h after dosing, n = 2, LC-MS/MS
  level at 1 h: 1410 ng/mL
200 mg, Plasma concentration, geometric mean (CV%), 200 mg SC, day 18 cycle 4, 1.5 h after dosing, n = 2, LC-MS/MS
  level at 1.5 h: 1150 ng/mL
200 mg, Plasma concentration, geometric mean (CV%), 200 mg SC, day 18 cycle 4, 2 h after dosing, n = 2, LC-MS/MS
  level at 2 h: 1500 ng/mL
200 mg, Plasma concentration, geometric mean (CV%), 200 mg SC, day 18 cycle 4, 3.5 h after dosing, n = 2, LC-MS/MS
  level at 3.5 h: 1310 ng/mL
200 mg, Plasma concentration, geometric mean (CV%), 200 mg SC, day 18 cycle 4, 5 h after dosing, n = 2, LC-MS/MS
  level at 5 h: 975 ng/mL
200 mg, 200 mg SC, day 1 cycle 1, n = 4
  Tmax: 2.5 h
200 mg, 200 mg SC, day 3 cycle 1, n = 4
  Tmax: 2 h
200 mg, 200 mg SC, day 18 cycle 1, n = 3
  Tmax: 2.03 h
200 mg, 200 mg SC, day 18 cycle 2, n = 2
  Tmax: 1.54 h
200 mg, 200 mg SC, day 18 cycle 4, n = 2
  Tmax: 1.57 h
[1]
  AUC(0-t): 11900 ng·h/mL
  Cmax: 2550 ng/mL
[2]
  AUC(0-t): 12500 ng·h/mL
  Cmax: 2690 ng/mL
[3]
  AUC(0-t): 10400 ng·h/mL
  Cmax: 2780 ng/mL
[4]
  AUC(0-t): 8600 ng·h/mL
  Cmax: 2140 ng/mL
[5]
  AUC(0-t): 26700 ng·h/mL
  Cmax: 6830 ng/mL
300 mg, 300 mg SC, day 18 cycle 1, n = 3
  Cmax: 2880 ng/mL
300 mg, Plasma concentration, geometric mean (CV%), 300 mg SC, day 1 cycle 1, 0.25 h after dosing, n = 3, LC-MS/MS
  level at 0.25 h: 1050 ng/mL
300 mg, Plasma concentration, geometric mean (CV%), 300 mg SC, day 1 cycle 1, 0.75 h after dosing, n = 3, LC-MS/MS
  level at 0.75 h: 1970 ng/mL
300 mg, Plasma concentration, geometric mean (CV%), 300 mg SC, day 1 cycle 1, 1.5 h after dosing, n = 3, LC-MS/MS
  level at 1.5 h: 2250 ng/mL
